The values below come from US10285983B2, “3-(1H-pyrrolo[2,3-B]pyridin-2-yl)-1H-pyrazolo[3,4-B] pyridines and therapeutic uses thereof” (Samumed, LLC, priority 2015, dated 2019).

Holding throughout (format): cell-based
For assay [1], the system named is Wnt activity (Sp5-Luc reporter, SW480 colon carcinoma cells). Description: Wnt activity screening assay, Sp5-Luc reporter gene in SW480 cells. As to conditions: Homo sapiens; for inhibition at 10 µM: given for EC50 >10 μM, read-out: percent inhibition at 10 μM; for EC50: overnight incubation. An outline of the steps:
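SW480 colon carcinoma cells stably expressing firefly luciferase under a human Sp5 promoter (eight TCF/LEF sites), plated in 1% FBS medium. 10-point 1:3 dilutions from 10 μM, 0.1% DMSO final, overnight at 37 °C; luminescence normalized to DMSO, four-parameter fit for EC50, % inhibition at 10 μM if EC50 >10 μM.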
Background: Reporter assays use an easily measured gene product as a stand-in for the process of interest.

A further assay deals with SW480 colon cancer cells. Nature of the assay: Cell viability assay (CellTiter-Blue). As to conditions: Homo sapiens, 96 h, four days; for inhibition at 10 µM: given for EC50 >10 μM, read-out: percent inhibition at 10 μM. Summed up:
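Approximately 2×10^3 SW480 cells per well are seeded with compound (8 points, threefold steps, top 10 μM) and incubated four days at 37 °C. CellTiter-Blue is then added for about 3 h and fluorescence read. Non-linear regression gives EC50; for values beyond 10 μM, percent inhibition at that concentration is listed.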
(In general: Alamar Blue is a resazurin reagent that responds to reducing activity.)

In assay [2] the test system is primary human mesenchymal stem cells (hMSCs). Description: Chondrogenesis induction in hMSCs (nodule count, Rhodamine B/Nile Red). The note with it: 144 h, 6 days; for Emax: relative to TGF-β3 (10 ng/mL) positive control, read-out: Max. Activity as % TGF-β3 activity; for EC50: concentration required to induce 50% levels of chondrogenesis vs TGF-β3, read-out: Conc (nM) of 50% TGF-β3 activity. The procedure:
Representative compounds were screened using primary human mesenchymal stem cells (hMSCs) to determine their ability to induce chondrogenesis (process by which cartilage is developed).
Primary human mesenchymal stem cells (hMSCs) were purchased from Lonza (Walkersville, Md.) and expanded in Mesenchymal Stem Cell Growth Media (Lonza). Cells between passage 3 and 6 were used for the experiments.
Each compound was dissolved in DMSO as a 10 mM stock and used to prepare compound source plates. Serial dilution (1:3, 6-point dose-response curves from 2700 nM to 10 nM) and compound transfer was performed using the ECHO 550 (Labcyte, Sunnyvale, Calif.) into 96-well clear bottom assay plates (Greiner Bio-One) with appropriate DMSO backfill for a final DMSO concentration of 0.03%. hMSCs were plated at 20,000 cells/well in 250 μL/well Incomplete Chondrogenic Induction Medium (Lonza; DMEM, dexamethasone, ascorbate, insulin-transferrin-selenium [ITS supplement], gentamycin-amphotericin [GA-1000], sodium pyruvate, proline and L-glutamine). TGF-β3 (10 ng/mL) was used as a positive control for differentiation while negative control wells were treated with 75 nL DMSO for normalization and calculating EC50 values. Cells were incubated at 37° C. and 5% CO2 for 6 days. To image chondrogenic nodules, the cells were fixed using 4% formaldehyde (Electron Microscopy Sciences), and stained with 2 μg/mL Rhodamine B (Sigma-Aldrich) and 20 μM Nile Red (Sigma-Aldrich) [Johnson K., et. al, A Stem Cell-Based Approach to Cartilage Repair, Science, (2012), 336(6082), 717-721]. The nodules imaged (4 images per well at 4× magnification) by excitation at 531 nm and emission at 625 nm and quantified using the CellInsight CX5 (Thermo Scientific). Number of nodules in each well was normalized to the average of 3 DMSO treated wells on the same plate using Excel (Microsoft Inc.). The normalized averages (fold change over DMSO) of 3 replicate wells for each compound concentration were calculated. Due to solubility limitations of some of the compounds, curve fitting was incomplete leading to inaccurate EC50 determinations.
Using TGF-β3 as a positive control, the concentration of representative compounds required to induce 50% levels of chondrogenesis is reported. In addition, the maximum activity of each compound and the respective dose that each compound reached maximum chondrogenesis activity is reported.

As usually defined, the inhibition is the percentage by which the read-out fell short of the control. Take `CC(C)CC(=O)Nc1cncc(-c2cnc3[nH]nc(-c4cc5c(-c6cccnc6)ccnc5[nH]4)c3c2)c1` [Compound 86, 3-Methyl-N-(5-(3-(4-(pyridin-3-yl)-1H-pyrrolo[2,3-b]pyridin-2-yl)-1H-pyrazolo[3,4-b]pyridin-5-yl)pyridin-3-yl)butanamide]: the inhibition at 10 µM was 2.7% in assay [1] and 24.1% with SW480 colon cancer cells. The EC50 (in assay [1]; with SW480 colon cancer cells) was over 10 µM throughout. The Emax in assay [2] worked out at 44%.

As to `CCNCc1cncc(-c2cnc3[nH]nc(-c4cc5c(-c6cccnc6)ccnc5[nH]4)c3c2)c1` [Compound 90, N-((5-(3-(4-(Pyridin-3-yl)-1H-pyrrolo[2,3-b]pyridin-2-yl)-1H-pyrazolo[3,4-b]pyridin-5-yl)pyridin-3-yl)methyl)ethanamine], the inhibition at 10 µM was determined as 8.2% in assay [1] and 17% in the assay with SW480 colon cancer cells. In addition, the figures for the EC50 (in assay [1]; in the assay with SW480 colon cancer cells; in assay [2]) were over 10 µM, over 10 µM and 10 nM, respectively. Besides, the Emax in assay [2] stood at 92%.

Regarding `CN(C)Cc1cncc(-c2cnc3[nH]nc(-c4cc5c(-c6cccnc6)ccnc5[nH]4)c3c2)c1` [Compound 97, N,N-Dimethyl-1-(5-(3-(4-(pyridin-3-yl)-1H-pyrrolo[2,3-b]pyridin-2-yl)-1H-pyrazolo[3,4-b]pyridin-5-yl)pyridin-3-yl)methanamine], in assay [1], the inhibition at 10 µM amounted to 0% and the EC50 was over 10 µM. In the assay with SW480 colon cancer cells, the EC50 was over 10 µM and the inhibition at 10 µM turned out to be 19.6%. The Emax in assay [2] is 49%.

Take `c1cncc(-c2ccnc3[nH]c(-c4n[nH]c5ncc(-c6cncc(CN7CCCCC7)c6)cc45)cc23)c1` [Compound 99, 5-(5-(Piperidin-1-ylmethyl)pyridin-3-yl)-3-(4-(pyridin-3-yl)-1H-pyrrolo[2,3-b]pyridin-2-yl)-1H-pyrazolo[3,4-b]pyridine]: in assay [1], the inhibition at 10 µM was found to be 26% and the EC50 is over 10 µM. In the assay on SW480 colon cancer cells, the EC50 is over 10 µM and the inhibition at 10 µM was 9.6%. Also, the Emax in assay [2] came out at 44%.

On to `Nc1cncc(-c2cnc3[nH]nc(-c4cc5c(-c6ccncc6)ccnc5[nH]4)c3c2)c1` [Compound 115, 5-(3-(4-(Pyridin-4-yl)-1H-pyrrolo[2,3-b]pyridin-2-yl)-1H-pyrazolo[3,4-b]pyridin-5-yl)pyridin-3-amine], for which, in assay [1], the inhibition at 10 µM came to 5.6% and the EC50 is over 10 µM. Further, in the assay with SW480 colon cancer cells, the EC50 is over 10 µM and the inhibition at 10 µM was found to be 0%. Besides, the Emax in assay [2] was found to be 12%.

For `CC(C)(C)CC(=O)Nc1cncc(-c2cnc3[nH]nc(-c4cc5c(-c6ccncc6)ccnc5[nH]4)c3c2)c1` [Compound 128, 3,3-Dimethyl-N-(5-(3-(4-(pyridin-4-yl)-1H-pyrrolo[2,3-b]pyridin-2-yl)-1H-pyrazolo[3,4-b]pyridin-5-yl)pyridin-3-yl)butanamide], the inhibition at 10 µM was 0% in assay [1] and 10.7% with SW480 colon cancer cells. The EC50 is over 10 µM in assay [1], over 10 µM with SW480 colon cancer cells and 300 nM in assay [2]. The Emax in assay [2] is 79%.

As to `CCCC(=O)Nc1cncc(-c2cnc3[nH]nc(-c4cc5c(-c6ccncc6)ccnc5[nH]4)c3c2)c1` [Compound 129, N-(5-(3-(4-(Pyridin-4-yl)-1H-pyrrolo[2,3-b]pyridin-2-yl)-1H-pyrazolo[3,4-b]pyridin-5-yl)pyridin-3-yl)butyramide], in assay [1], the inhibition at 10 µM was 35% and the EC50 is over 10 µM. In the assay on SW480 colon cancer cells, the EC50 is over 10 µM and the inhibition at 10 µM was determined as 3.8%. Besides, in assay [2], the EC50 stood at 30 nM and the Emax was 50%.

`c1ccc(CNCc2cncc(-c3cnc4[nH]nc(-c5cc6c(-c7ccncc7)ccnc6[nH]5)c4c3)c2)cc1` [Compound 136, N-Benzyl-1-(5-(3-(4-(pyridin-4-yl)-1H-pyrrolo[2,3-b]pyridin-2-yl)-1H-pyrazolo[3,4-b]pyridin-5-yl)pyridin-3-yl)methanamine]: in assay [1], the inhibition at 10 µM is 0% and the EC50 is over 10 µM. Further, in the assay on SW480 colon cancer cells, the EC50 is over 10 µM and the inhibition at 10 µM was 14.9%. In addition, in assay [2], the EC50 is 2700 nM and the Emax amounted to 93%.

As for `CCC(=O)Nc1cncc(-c2cnc3[nH]nc(-c4cc5c(N6CCCCC6)ccnc5[nH]4)c3c2)c1` [Compound 169, N-(5-(3-(4-(Piperidin-1-yl)-1H-pyrrolo[2,3-b]pyridin-2-yl)-1H-pyrazolo[3,4-b]pyridin-5-yl)pyridin-3-yl)propionamide], the EC50 in assay [1] stood at 0.861 µM. In addition, in the assay on SW480 colon cancer cells, the EC50 is over 10 µM and the inhibition at 10 µM turned out to be 36.1%. Further, in assay [2], the EC50 turned out to be 900 nM and the Emax came to 183%.

As for `CN(C)Cc1cncc(-c2cnc3[nH]nc(-c4cc5c(N6CCCCC6)ccnc5[nH]4)c3c2)c1` [Compound 181, N,N-Dimethyl-1-(5-(3-(4-(piperidin-1-yl)-1H-pyrrolo[2,3-b]pyridin-2-yl)-1H-pyrazolo[3,4-b]pyridin-5-yl)pyridin-3-yl)methanamine], in assay [1], the inhibition at 10 µM amounted to 38.8% and the EC50 is over 10 µM. In addition, in the assay on SW480 colon cancer cells, the EC50 was over 10 µM and the inhibition at 10 µM turned out to be 40.9%. In addition, the Emax in assay [2] was 46%.

For `c1cncc(-c2cnc3[nH]nc(-c4cc5cccnc5[nH]4)c3c2)c1` [Compound 256, 5-(Pyridin-3-yl)-3-(1H-pyrrolo[2,3-b]pyridin-2-yl)-1H-pyrazolo[3,4-b]pyridine], the EC50 in assay [1] is 1.06 µM. Moreover, in the assay with SW480 colon cancer cells, the EC50 is over 10 µM and the inhibition at 10 µM worked out at 5.8%. Besides, the Emax in assay [2] was 11%.

With `O=C(Nc1cncc(-c2cnc3[nH]nc(-c4cc5cccnc5[nH]4)c3c2)c1)c1ccccc1` [Compound 263, N-(5-(3-(1H-Pyrrolo[2,3-b]pyridin-2-yl)-1H-pyrazolo[3,4-b]pyridin-5-yl)pyridin-3-yl)benzamide], in assay [1], the inhibition at 10 µM was found to be 29.7% and the EC50 is over 10 µM. In addition, in the assay on SW480 colon cancer cells, the EC50 is over 10 µM and the inhibition at 10 µM was found to be 21.1%. Also, the Emax in assay [2] is 22%.

For `CC(C)(C)CC(=O)Nc1cncc(-c2cnc3[nH]nc(-c4cc5cccnc5[nH]4)c3c2)c1` [Compound 268, N-(5-(3-(1H-Pyrrolo[2,3-b]pyridin-2-yl)-1H-pyrazolo[3,4-b]pyridin-5-yl)pyridin-3-yl)-3,3-dimethylbutanamide], the values for the EC50 (in assay [1]; with SW480 colon cancer cells) were 0.86 µM and 1.99 µM, respectively. In addition, in assay [2], the Emax is 23%.

In the case of `CCCCC(=O)Nc1cncc(-c2cnc3[nH]nc(-c4cc5cccnc5[nH]4)c3c2)c1` [Compound 271, N-(5-(3-(1H-Pyrrolo[2,3-b]pyridin-2-yl)-1H-pyrazolo[3,4-b]pyridin-5-yl)pyridin-3-yl)pentanamide], in assay [1], the inhibition at 10 µM turned out to be 6.5% and the EC50 was over 10 µM. In the assay with SW480 colon cancer cells, the EC50 was over 10 µM and the inhibition at 10 µM was 11.4%. Moreover, in assay [2], the EC50 came out at 900 nM and the Emax was determined as 260%.

Regarding `O=C(Nc1cncc(-c2cnc3[nH]nc(-c4cc5cccnc5[nH]4)c3c2)c1)C1CCCCC1` [Compound 275, N-(5-(3-(1H-Pyrrolo[2,3-b]pyridin-2-yl)-1H-pyrazolo[3,4-b]pyridin-5-yl)pyridin-3-yl)cyclohexanecarboxamide], the EC50 in assay [1] was 1.26 µM; in the assay on SW480 colon cancer cells, 2.43 µM. In addition, the Emax in assay [2] turned out to be 28%.
